From US20250296959A1, “B7-H3 TARGETING PEPTIDES AND CONSTRUCTS THEREOF” (Mariana Oncology Inc., priority 2024, published 2025)
Starred links: 1 amine or outer side, 2 acyl side, 3 side chain; linkers in the order of their positions; H or OH if unused. Positions of bridges follow the written chain, without caps; N, C: chain ends. Non-standard residues stand in square brackets, D forms with d. Residues, ends and D or L forms follow the SMILES beside them. *: point of attachment. X7 = O=C(O)CN1CCN(CC(=O)O)CCN(CC(=O)NCCOCCOCCOCCOCCOCCOCCOCCOCC(=O)*)CCN(CC(=O)O)CC1; Phe(3-CH2NH2) = O=C([C@H](Cc1cccc(CN[*:3])c1)N[*:1])[*:2]; DOTA = O=C(O)CN1CCN(CC(=O)O)CCN(CC(=O)*)CCN(CC(=O)O)CC1; Phe(4-COOH) = N[C@@H](Cc1ccc(C(=O)O)cc1)C(=O)O; Trp(5-F) = N[C@@H](Cc1c[nH]c2ccc(F)cc12)C(=O)O; 1Nal = N[C@@H](Cc1cccc2ccccc12)C(=O)O; hTyr = N[C@@H](CCc1ccc(O)cc1)C(=O)O; aIle = CC[C@@H](C)[C@H](N)C(=O)O; αMeF = C[C@](N)(Cc1ccccc1)C(=O)O; Tle = CC(C)(C)[C@H](N)C(=O)O; hLeu = CC(C)CC[C@H](N)C(=O)O; Nle = CCCC[C@H](N)C(=O)O

target: T1, human 4lg B7-H3 (Homo sapiens, UniProt Q5ZPR3); test: Affinity determination by surface plasmon resonance (SPR) to 4Ig B7-H3; details: SPR KD—25° C., 4Ig B7-H3; 25° C. flow cell temperature
T1 sequence (Q5ZPR3 29-534): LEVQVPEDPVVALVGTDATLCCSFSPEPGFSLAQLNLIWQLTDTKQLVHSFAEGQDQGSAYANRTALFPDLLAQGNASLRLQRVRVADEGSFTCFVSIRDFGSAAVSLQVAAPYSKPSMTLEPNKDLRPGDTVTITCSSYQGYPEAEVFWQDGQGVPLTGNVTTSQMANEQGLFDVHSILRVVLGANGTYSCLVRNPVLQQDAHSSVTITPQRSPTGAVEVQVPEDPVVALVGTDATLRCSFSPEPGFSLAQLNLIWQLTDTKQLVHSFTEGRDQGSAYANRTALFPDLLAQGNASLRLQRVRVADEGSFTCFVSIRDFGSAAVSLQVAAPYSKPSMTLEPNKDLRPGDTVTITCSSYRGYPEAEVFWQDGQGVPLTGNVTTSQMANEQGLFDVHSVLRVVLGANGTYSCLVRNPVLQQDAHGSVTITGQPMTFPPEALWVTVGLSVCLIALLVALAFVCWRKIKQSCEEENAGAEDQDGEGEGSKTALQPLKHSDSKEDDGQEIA

Row | Structure (SMILES) | Kd
1 | CC[C@@H](C)[C@@H]1NC(=O)[C@H](CC(=O)O)NC(=O)[C@H](Cc2ccc(O)cc2)NC(=O)[C@H](CCCCN)NC(=O)CNC(=O)[C@H](C(C)C)NC(=O)[C@@H](NC(=O)[C@H](Cc2ccc(O)cc2)NC(=O)[C@H](CCC(C)C)NC(C)=O)CSSC[C@@H](C(=O)N[C@@H](Cc2c[nH]c3ccccc23)C(=O)N[C@@H](Cc2ccccc2)C(=O)N[C@H](C(=O)N[C@H](CCCCNC(=O)CN2CCN(CC(=O)O)CCN(CC(=O)O)CCN(CC(=O)O)CC2)C(N)=O)[C@@H](C)O)NC(=O)[C@H](Cc2ccc(O)cc2)NC1=O [compound 126, Ac-hLeu-Y-C-V-G-K-Y-D-allolle-Y-C-W-F-Thr-dLys(DOTA)-CONH2] (Ac-[hLeu]YCVGKYD[aIle]YCWFT[dK](DOTA)-NH2; disulfide 3-11) | < 1 nM
2 | CC(=O)N[C@@H](CCC(C)C)C(=O)N[C@@H](Cc1ccc(O)cc1)C(=O)N[C@H]1CSSC[C@@H](C(=O)N[C@@H](Cc2cccc3ccccc23)C(=O)N[C@@H](Cc2ccccc2)C(=O)N2CCC[C@H]2C(N)=O)NC(=O)[C@H](Cc2ccc(O)cc2)NC(=O)[C@H](C(C)C)NC(=O)[C@H](CC(=O)O)NC(=O)[C@H](Cc2cccc(CNC(=O)COCCOCCOCCOCCOCCOCCOCCOCCNC(=O)CN3CCN(CC(=O)O)CCN(CC(=O)O)CCN(CC(=O)O)CC3)c2)NC(=O)[C@H](CCCCN)NC(=O)CNC(=O)[C@H](C(C)(C)C)NC1=O [compound 279, Ac-hLeu-Y-C-Tbg-G-K-MAF(PEG8-DOTA)-D-V-Y-C-1Nal-F-Pro-CONH2] (Ac-[hLeu]YC[Tle]GK[Phe(3-CH2NH2)](X7)DVYC[1Nal]FP-NH2; disulfide 3-11) | 1 to 10 nM
3 | CC(=O)N[C@@H](CCC(C)C)C(=O)N[C@@H](Cc1ccc(O)cc1)C(=O)N[C@H]1CSSC[C@@H](C(=O)N[C@@H](Cc2c[nH]c3ccc(F)cc23)C(=O)N[C@@H](Cc2ccccc2)C(=O)N[C@H](C(=O)N[C@H](CCCCNC(=O)CN2CCN(CC(=O)O)CCN(CC(=O)O)CCN(CC(=O)O)CC2)C(N)=O)[C@@H](C)O)NC(=O)[C@H](Cc2ccc(O)cc2)NC(=O)[C@H](C(C)C)NC(=O)[C@H](CC(=O)O)NC(=O)[C@H](CCc2ccc(O)cc2)NC(=O)[C@H](CCCCN)NC(=O)CNC(=O)[C@H](C(C)C)NC1=O [compound 167, Ac-hLeu-Y-C-V-G-K-hTyr-D-V-Y-C-5FW-F-Thr-dLys(DOTA)-CONH2] (Ac-[hLeu]YCVGK[hTyr]DVYC[Trp(5-F)]FT[dK](DOTA)-NH2; disulfide 3-11) | 1 to 10 nM
4 | CC(=O)N[C@@H](CCC(C)C)C(=O)N[C@@H](Cc1ccc(O)cc1)C(=O)N[C@H]1CSSC[C@@H](C(=O)N[C@@H](Cc2c[nH]c3ccc(F)cc23)C(=O)N[C@@](C)(Cc2ccccc2)C(=O)N[C@H](C(=O)N[C@H](CCCCNC(=O)CN2CCN(CC(=O)O)CCN(CC(=O)O)CCN(CC(=O)O)CC2)C(N)=O)[C@@H](C)O)NC(=O)[C@H](Cc2ccc(O)cc2)NC(=O)[C@H](C(C)C)NC(=O)[C@H](CC(=O)O)NC(=O)[C@H](Cc2ccc(O)cc2)NC(=O)[C@H](CCCCN)NC(=O)CNC(=O)[C@H](C(C)C)NC1=O [compound 168, Ac-hLeu-Y-C-V-G-K-Y-D-V-Y-C-5FW-aMePhe-Thr-dLys(DOTA)-CONH2] (Ac-[hLeu]YCVGKYDVYC[Trp(5-F)][αMeF]T[dK](DOTA)-NH2; disulfide 3-11) | 100 to 300 nM
5 | CCCC[C@@H]1NC(=O)[C@H](C(C)C)NC(=O)[C@H](CC(=O)O)NC(=O)[C@H](Cc2ccc(C(=O)O)cc2)NC(=O)[C@H](CCCCNC(=O)CN2CCN(CC(=O)O)CCN(CC(=O)O)CCN(CC(=O)O)CC2)NC(=O)CNC(=O)[C@H](C(C)C)NC(=O)[C@@H](NC(=O)[C@H](Cc2ccc(O)cc2)NC(=O)[C@H](CCC(C)C)NC(C)=O)CSSC[C@@H](C(=O)N[C@@H](Cc2c[nH]c3ccc(F)cc23)C(=O)N[C@@H](Cc2ccccc2)C(=O)N2CCC[C@H]2C(N)=O)NC1=O [compound 302, Ac-hLeu-Y-C-V-G-Lys(DOTA)-4COOHPhe-D-V-Nle-C-5FW-F-Pro-CONH2] (Ac-[hLeu]YCVGK(DOTA)[Phe(4-COOH)]DV[Nle]C[Trp(5-F)]FP-NH2; disulfide 3-11) | 100 to 300 nM
